Source: ChEMBL document CHEMBL5463729, “Data for DCP probe BAY 1753011” (2023)
The source made the active and inactive calls. No cut-off for these calls is given here.

Tests used:
Oxytocin receptor = molecular target: T1, Oxytocin receptor (Homo sapiens, UniProt P30559); assay: Radiometric OXTR binding assay (Eurofins #260900)
T1 sequence (P30559 whole entry): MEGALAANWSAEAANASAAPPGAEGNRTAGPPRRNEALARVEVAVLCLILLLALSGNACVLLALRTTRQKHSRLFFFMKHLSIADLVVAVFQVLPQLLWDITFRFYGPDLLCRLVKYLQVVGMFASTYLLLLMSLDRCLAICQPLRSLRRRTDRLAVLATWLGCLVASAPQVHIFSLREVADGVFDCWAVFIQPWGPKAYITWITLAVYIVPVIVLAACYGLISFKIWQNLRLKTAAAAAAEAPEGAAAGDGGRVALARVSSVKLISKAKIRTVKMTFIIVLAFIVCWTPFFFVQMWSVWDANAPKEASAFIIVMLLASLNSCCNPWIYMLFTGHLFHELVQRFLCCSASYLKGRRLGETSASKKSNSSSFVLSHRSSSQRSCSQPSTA

[1] = molecular target: T2, Oxytocin receptor (Homo sapiens) (UniProt P30559); assay: Inhibition of Oxytocin at 1 µM in the Eurofins-Panlabs radioligand binding assay (Eurofins_assay_260900); set-up: ligand concentration 0.8 nM, non-specific ligand with concentration 1 µM Oxytocin, incubation time 2 h, incubation temperature 25°C
T2 sequence (whole entry): T1 sequence (P30559 whole entry)

[2] = molecular target: Activin receptor type-1 (Homo sapiens) (UniProt Q04771); assay: Inhibition of ALK2(h) at 10.0 µM in the Eurofins Kinase panel; details: Compound concentration 10.0 uM
[3] = molecular target: 5'-AMP-activated protein kinase catalytic subunit alpha-1 (Homo sapiens) (UniProt Q13131); assay: Inhibition of AMPKalpha1(h) at 10.0 µM in the Eurofins Kinase panel; details: Compound concentration 10.0 uM
[4] = molecular target: Aurora kinase A (Homo sapiens) (UniProt O14965); assay: Inhibition of Aurora-A(h) at 10.0 µM in the Eurofins Kinase panel; details: Compound concentration 10.0 uM
[5] = molecular target: Casein kinase I isoform gamma-3 (Homo sapiens) (UniProt Q9Y6M4); assay: Inhibition of CK1gamma3(h) at 10.0 µM in the Eurofins Kinase panel; details: Compound concentration 10.0 uM
[6] = molecular target: Myotonin-protein kinase (Homo sapiens) (UniProt Q09013); assay: Inhibition of DMPK(h) at 10.0 µM in the Eurofins Kinase panel; details: Compound concentration 10.0 uM
[7] = molecular target: Receptor tyrosine-protein kinase erbB-4 (Homo sapiens) (UniProt Q15303); assay: Inhibition of ErbB4(h) at 10.0 µM in the Eurofins Kinase panel; details: Compound concentration 10.0 uM
[8] = molecular target: Homeodomain-interacting protein kinase 1 (Homo sapiens) (UniProt Q86Z02); assay: Inhibition of HIPK1(h) at 10.0 µM in the Eurofins Kinase panel; details: Compound concentration 10.0 uM
[9] = molecular target: Serine/threonine-protein kinase/endoribonuclease IRE1 (Homo sapiens) (UniProt O75460); assay: Inhibition of IRE1(h) at 10.0 µM in the Eurofins Kinase panel; details: Compound concentration 10.0 uM
[10] = molecular target: Tyrosine-protein kinase JAK1 (Homo sapiens) (UniProt P23458); assay: Inhibition of JAK1(h) at 10.0 µM in the Eurofins Kinase panel; details: Compound concentration 10.0 uM
[11] = molecular target: Tyrosine-protein kinase JAK3 (Homo sapiens) (UniProt P52333); assay: Inhibition of JAK3(h) at 10.0 µM in the Eurofins Kinase panel; details: Compound concentration 10.0 uM
[12] = molecular target: MAP kinase-activated protein kinase 2 (Homo sapiens) (UniProt P49137); assay: Inhibition of MAPK2(h) at 10.0 µM in the Eurofins Kinase panel; details: Compound concentration 10.0 uM
[13] = molecular target: Tyrosine-protein kinase Mer (Homo sapiens) (UniProt Q12866); assay: Inhibition of Mer(h) at 10.0 µM in the Eurofins Kinase panel; details: Compound concentration 10.0 uM
[14] = molecular target: Serine/threonine-protein kinase 26 (Homo sapiens) (UniProt Q9P289); assay: Inhibition of MST4(h) at 10.0 µM in the Eurofins Kinase panel; details: Compound concentration 10.0 uM
[15] = molecular target: Tyrosine-protein kinase Tec (Homo sapiens) (UniProt P42680); assay: Inhibition of Tec(h) activated at 10.0 µM in the Eurofins Kinase panel; details: Compound concentration 10.0 uM
[16] = molecular target: Serine/threonine-protein kinase ULK3 (Homo sapiens) (UniProt Q6PHR2); assay: Inhibition of ULK3(h) at 10.0 µM in the Eurofins Kinase panel; details: Compound concentration 10.0 uM
[17] = molecular target: Serine/threonine-protein kinase VRK1 (Homo sapiens) (UniProt Q99986); assay: Inhibition of VRK1(h) at 10.0 µM in the Eurofins Kinase panel; details: Compound concentration 10.0 uM
[18] = molecular target: T3, 5-hydroxytryptamine receptor 3A (Homo sapiens) (UniProt P46098); details: Compound concentration 10.0 uM
T3 sequence (whole entry): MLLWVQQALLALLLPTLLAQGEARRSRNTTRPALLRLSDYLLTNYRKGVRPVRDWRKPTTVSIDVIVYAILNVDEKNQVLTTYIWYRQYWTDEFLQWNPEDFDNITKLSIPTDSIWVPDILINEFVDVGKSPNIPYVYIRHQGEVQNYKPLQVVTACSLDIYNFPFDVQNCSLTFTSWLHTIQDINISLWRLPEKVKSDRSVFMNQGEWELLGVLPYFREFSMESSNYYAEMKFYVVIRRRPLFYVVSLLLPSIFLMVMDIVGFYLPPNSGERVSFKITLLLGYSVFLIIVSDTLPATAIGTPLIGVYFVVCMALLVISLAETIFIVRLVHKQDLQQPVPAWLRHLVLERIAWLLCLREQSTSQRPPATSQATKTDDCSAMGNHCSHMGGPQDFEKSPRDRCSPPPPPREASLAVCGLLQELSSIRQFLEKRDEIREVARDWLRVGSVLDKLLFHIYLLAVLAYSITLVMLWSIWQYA

[19] = molecular target: D(3) dopamine receptor (Homo sapiens) (UniProt P35462); details: Compound concentration 10.0 uM
[20] = molecular target: D(1B) dopamine receptor (Homo sapiens) (UniProt P21918); details: Compound concentration 10.0 uM
[21] = molecular target: T4, Muscarinic acetylcholine receptor M5 (Homo sapiens) (UniProt P08912); details: Compound concentration 10.0 uM
T4 sequence (whole entry): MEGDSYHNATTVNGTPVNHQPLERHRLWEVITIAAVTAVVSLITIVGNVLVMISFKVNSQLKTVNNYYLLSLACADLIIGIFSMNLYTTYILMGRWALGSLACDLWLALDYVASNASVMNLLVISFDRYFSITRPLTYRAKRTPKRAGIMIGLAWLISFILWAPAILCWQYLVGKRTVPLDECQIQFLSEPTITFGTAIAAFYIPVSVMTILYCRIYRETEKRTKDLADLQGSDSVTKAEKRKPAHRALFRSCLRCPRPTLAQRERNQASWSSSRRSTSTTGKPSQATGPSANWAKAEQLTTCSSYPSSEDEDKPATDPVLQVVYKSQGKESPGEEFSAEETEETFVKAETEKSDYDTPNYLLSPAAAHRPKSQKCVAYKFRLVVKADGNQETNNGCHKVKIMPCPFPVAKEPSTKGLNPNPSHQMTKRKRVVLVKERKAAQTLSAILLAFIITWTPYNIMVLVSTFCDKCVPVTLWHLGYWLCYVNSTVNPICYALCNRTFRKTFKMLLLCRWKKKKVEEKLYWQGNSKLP

[22] = molecular target: D(2) dopamine receptor (Homo sapiens) (UniProt P14416); details: Compound concentration 10.0 uM

D(3) dopamine receptor (Homo sapiens), sequence (P35462 whole entry): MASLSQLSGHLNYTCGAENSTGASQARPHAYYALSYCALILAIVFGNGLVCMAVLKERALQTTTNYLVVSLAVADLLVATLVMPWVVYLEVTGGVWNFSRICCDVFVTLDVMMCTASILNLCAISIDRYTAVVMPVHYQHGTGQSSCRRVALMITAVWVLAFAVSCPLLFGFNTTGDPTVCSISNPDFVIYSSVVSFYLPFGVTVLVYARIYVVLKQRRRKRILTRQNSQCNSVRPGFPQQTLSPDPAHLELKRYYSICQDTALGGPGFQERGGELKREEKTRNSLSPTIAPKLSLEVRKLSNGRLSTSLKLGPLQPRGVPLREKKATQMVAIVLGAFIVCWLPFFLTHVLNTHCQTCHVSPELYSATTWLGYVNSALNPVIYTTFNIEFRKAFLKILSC
D(1B) dopamine receptor (Homo sapiens), sequence (P21918 whole entry): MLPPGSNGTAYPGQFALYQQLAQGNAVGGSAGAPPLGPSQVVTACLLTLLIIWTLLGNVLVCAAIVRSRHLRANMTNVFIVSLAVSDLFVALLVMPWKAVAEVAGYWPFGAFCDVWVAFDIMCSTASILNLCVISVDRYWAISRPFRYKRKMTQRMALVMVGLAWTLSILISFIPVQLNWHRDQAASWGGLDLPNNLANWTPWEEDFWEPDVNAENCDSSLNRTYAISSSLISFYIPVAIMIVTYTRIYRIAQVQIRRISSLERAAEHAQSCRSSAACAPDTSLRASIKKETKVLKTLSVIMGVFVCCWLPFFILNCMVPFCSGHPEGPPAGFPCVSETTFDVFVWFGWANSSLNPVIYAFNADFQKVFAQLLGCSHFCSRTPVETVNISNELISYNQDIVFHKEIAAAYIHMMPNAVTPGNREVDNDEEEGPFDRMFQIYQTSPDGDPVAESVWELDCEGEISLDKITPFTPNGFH
Homeodomain-interacting protein kinase 1 (Homo sapiens), sequence (Q86Z02 whole entry, looked up): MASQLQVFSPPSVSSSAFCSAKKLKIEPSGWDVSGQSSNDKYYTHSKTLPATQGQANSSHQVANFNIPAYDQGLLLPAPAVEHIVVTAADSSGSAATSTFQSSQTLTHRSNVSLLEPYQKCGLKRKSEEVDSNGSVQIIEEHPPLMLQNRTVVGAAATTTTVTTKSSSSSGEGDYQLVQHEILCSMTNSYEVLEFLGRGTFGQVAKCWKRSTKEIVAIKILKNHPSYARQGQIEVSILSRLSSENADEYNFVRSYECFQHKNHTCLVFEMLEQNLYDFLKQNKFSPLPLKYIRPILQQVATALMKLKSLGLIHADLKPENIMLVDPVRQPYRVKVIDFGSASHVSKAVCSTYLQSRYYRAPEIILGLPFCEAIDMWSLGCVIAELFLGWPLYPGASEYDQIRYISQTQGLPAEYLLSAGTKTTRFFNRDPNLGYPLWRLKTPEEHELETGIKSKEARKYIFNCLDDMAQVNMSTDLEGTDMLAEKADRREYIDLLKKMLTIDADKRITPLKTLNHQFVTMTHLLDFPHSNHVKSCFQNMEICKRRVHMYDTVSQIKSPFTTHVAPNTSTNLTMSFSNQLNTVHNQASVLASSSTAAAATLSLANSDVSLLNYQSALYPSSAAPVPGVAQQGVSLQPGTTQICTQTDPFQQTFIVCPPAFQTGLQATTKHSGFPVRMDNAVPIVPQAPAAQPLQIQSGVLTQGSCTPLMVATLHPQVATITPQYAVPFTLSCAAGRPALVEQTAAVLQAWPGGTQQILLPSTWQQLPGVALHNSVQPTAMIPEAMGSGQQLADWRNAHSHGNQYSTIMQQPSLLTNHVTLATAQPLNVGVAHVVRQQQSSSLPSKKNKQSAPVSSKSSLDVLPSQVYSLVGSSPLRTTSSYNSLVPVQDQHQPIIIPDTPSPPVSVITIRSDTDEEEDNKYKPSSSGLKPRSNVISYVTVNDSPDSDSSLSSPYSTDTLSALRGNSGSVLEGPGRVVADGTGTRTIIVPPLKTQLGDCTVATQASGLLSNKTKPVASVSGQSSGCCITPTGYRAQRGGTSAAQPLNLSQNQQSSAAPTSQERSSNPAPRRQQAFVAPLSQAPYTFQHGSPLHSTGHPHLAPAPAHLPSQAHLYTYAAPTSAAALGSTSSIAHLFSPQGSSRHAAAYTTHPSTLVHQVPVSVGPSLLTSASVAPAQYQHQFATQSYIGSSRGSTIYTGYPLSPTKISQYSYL
Serine/threonine-protein kinase 26 (Homo sapiens), sequence (Q9P289 2-416 limits assumed): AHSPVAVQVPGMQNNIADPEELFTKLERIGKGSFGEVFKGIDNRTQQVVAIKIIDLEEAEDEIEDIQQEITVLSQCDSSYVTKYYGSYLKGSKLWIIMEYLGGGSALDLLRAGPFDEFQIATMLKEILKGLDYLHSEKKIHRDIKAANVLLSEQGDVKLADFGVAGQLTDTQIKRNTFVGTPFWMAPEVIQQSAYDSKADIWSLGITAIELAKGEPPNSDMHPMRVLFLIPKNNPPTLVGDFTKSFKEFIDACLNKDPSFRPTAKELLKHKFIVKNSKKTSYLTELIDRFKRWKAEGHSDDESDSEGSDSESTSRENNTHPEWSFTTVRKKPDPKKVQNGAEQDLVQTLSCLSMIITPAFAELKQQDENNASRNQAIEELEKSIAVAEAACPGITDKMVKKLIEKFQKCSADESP
Tyrosine-protein kinase JAK1 (Homo sapiens), sequence (P23458 whole entry): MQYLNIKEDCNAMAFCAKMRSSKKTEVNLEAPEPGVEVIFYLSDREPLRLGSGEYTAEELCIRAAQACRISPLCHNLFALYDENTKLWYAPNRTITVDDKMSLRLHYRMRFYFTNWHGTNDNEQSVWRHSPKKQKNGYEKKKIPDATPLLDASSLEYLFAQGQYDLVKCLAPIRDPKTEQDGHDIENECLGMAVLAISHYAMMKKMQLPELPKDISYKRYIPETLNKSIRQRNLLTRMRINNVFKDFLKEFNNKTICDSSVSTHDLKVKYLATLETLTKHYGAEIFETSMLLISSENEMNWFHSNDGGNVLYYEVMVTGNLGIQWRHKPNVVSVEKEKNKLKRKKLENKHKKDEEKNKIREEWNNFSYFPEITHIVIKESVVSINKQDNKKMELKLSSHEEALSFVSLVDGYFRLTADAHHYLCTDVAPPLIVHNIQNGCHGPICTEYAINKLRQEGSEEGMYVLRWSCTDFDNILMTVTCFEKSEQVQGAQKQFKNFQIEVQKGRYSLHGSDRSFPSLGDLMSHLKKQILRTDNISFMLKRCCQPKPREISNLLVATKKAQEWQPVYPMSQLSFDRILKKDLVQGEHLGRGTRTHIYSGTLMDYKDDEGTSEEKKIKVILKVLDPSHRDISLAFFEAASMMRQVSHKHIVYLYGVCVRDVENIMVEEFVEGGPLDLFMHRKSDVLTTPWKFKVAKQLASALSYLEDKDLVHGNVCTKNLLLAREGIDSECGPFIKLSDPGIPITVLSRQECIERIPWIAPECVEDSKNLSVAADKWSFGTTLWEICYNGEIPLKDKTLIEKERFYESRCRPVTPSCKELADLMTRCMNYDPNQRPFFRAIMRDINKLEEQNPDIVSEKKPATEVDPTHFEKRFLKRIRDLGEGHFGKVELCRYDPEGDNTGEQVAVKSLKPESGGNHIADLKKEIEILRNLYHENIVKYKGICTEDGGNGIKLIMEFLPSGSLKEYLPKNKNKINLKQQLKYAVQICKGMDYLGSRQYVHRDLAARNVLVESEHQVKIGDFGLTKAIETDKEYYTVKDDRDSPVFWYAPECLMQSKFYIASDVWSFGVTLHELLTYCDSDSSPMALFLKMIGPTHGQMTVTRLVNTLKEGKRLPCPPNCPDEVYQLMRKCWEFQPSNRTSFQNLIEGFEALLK
Aurora kinase A (Homo sapiens), sequence (O14965 whole entry, canonical isoform): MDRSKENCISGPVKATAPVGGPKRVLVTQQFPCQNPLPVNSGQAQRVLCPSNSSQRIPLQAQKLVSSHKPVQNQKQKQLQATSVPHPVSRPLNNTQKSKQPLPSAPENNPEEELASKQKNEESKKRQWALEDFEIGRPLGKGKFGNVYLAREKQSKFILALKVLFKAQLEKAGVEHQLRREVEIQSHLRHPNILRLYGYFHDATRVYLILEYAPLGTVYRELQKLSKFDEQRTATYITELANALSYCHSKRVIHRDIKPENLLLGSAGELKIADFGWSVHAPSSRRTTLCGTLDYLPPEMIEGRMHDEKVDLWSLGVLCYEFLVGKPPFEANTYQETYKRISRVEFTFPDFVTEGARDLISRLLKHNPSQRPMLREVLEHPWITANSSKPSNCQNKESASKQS
Activin receptor type-1 (Homo sapiens), sequence (Q04771 whole entry): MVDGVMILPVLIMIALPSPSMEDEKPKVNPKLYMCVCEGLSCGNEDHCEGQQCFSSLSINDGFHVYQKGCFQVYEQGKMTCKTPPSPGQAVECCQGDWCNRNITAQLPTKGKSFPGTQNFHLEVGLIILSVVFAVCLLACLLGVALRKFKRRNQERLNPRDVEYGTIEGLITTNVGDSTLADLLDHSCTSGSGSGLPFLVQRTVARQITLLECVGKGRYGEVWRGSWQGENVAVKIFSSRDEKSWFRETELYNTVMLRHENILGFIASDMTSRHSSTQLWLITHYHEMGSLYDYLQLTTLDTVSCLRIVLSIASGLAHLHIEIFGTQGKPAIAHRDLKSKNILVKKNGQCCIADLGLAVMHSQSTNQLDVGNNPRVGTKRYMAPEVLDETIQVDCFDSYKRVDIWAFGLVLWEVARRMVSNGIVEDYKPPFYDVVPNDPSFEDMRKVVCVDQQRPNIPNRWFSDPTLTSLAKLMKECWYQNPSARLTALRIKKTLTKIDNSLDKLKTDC
Serine/threonine-protein kinase VRK1 (Homo sapiens), sequence (Q99986 whole entry): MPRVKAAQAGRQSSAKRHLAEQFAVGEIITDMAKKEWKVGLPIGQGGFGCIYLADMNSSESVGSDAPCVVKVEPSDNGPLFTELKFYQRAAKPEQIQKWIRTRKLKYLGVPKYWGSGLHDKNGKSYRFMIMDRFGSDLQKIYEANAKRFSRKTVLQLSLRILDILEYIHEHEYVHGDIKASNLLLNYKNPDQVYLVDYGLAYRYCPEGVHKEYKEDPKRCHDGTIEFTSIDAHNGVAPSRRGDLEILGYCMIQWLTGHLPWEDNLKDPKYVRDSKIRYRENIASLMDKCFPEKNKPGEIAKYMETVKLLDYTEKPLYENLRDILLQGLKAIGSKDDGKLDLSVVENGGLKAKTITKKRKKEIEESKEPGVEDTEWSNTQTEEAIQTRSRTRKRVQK

SMILES | Ki (Oxytocin receptor) | inhibition [2] | inhibition [3] | inhibition [4] | inhibition [5] | inhibition [6] | inhibition [7] | inhibition [8] | inhibition [9] | inhibition [10] | inhibition [11] | inhibition [12] | inhibition [13] | inhibition [14] | inhibition [15] | inhibition [16] | inhibition [17] | inhibition [18] | inhibition [19] | inhibition [20] | other results
O=c1n(Cc2cncn2-c2cccc(Cl)c2)nc(-c2ccc(Cl)cc2)n1C[C@H](O)C(F)(F)F | > 10 µM (not active) | -2.29% | -6.67% | 12.7% | -8.47% | 4.48% | -8.65% | 1.31% | 19.2% | 8.74% | 2.81% | 11.3% | -6.11% | -4.66% | 2.85% | 6.3% | 15.7% | -2.44% | 18.3% | 19.6% | inhibition ([1]; Compound concentration 10.0 uM): 12%; inhibition [21]: -5.11%; inhibition [22]: -3%
C[C@H](O)c1nc(Cn2nc(-c3ccc(Cl)cc3)n(C[C@H](O)C(F)(F)F)c2=O)nn1-c1cccc(Cl)c1 [PECAVAPTAN] | 0.0051 µM (active) | -2.51% | -4.1% | 11.2% | -8.75% | 12.7% | -4.41% | -2.92% | 5.58% | -1.72% | -1.87% | 11.1% | -0.91% | -2.72% | -7.44% | 10.9% | 12.3% | -4.35% | 19.7% | 1.94% | inhibition ([1]; Compound concentration 0.0001 uM): 3%; inhibition ([1]; Compound concentration 0.001 uM): 6%; inhibition ([1]; Compound concentration 0.01 uM): 41%; inhibition ([1]; Compound concentration 0.1 uM): 84%; inhibition ([1]; Compound concentration 1.0 uM): 95%; inhibition [21]: -1.8%; inhibition [22]: 14%
